Laboratory results taken from ChEMBL document CHEMBL1201862, “PubChem BioAssay data set” (2004).
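Results reflect a 48-hour exposure of cells in 96-well plates to compound at five concentrations. The concentration for 50% growth inhibition is given as GI50.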 The source made the active and inactive calls. Cut-off read from the data, not from the text of the source: active = GI50 up to about 1.1 µM and inactive = higher.

What was measured:
Experiment in all cases: DTP human tumour cell line panel, 48 h
ACHN = test system: ACHN
BT-549 = test system: BT-549
EKVX = test system: EKVX
HOP-62 = test system: HOP-62
K562 = test system: K562
MDA-MB-435 = test system: MDA-MB-435
MDA-N = test system: MDA-N
MOLT-4 = test system: MOLT-4
NCI/ADR-RES = test system: NCI/ADR-RES
OVCAR-4 = test system: OVCAR-4
RXF 393 = test system: RXF 393
SF-268 = test system: SF-268
SK-OV-3 = test system: SK-OV-3
SN12C = test system: SN12C
SNB-19 = test system: SNB-19
T47D = test system: T47D
U-251 = test system: U-251
UACC-257 = test system: UACC-257
UO-31 = test system: UO-31
SF-539 = test system: SF-539

Measured: GI50

CC(C)(CC#N)c1cc(CC(C)(C)c2cc(CC(C)(C)c3cc(C(C)(C)C4(C)OCCO4)no3)no2)no1
inactive: ACHN 35.5 µM | BT-549 52.5 µM | EKVX 33 µM | HOP-62 27 µM | K562 > 100 µM | MDA-MB-435 > 100 µM | MDA-N 51.1 µM | MOLT-4 > 100 µM | NCI/ADR-RES 47.2 µM | OVCAR-4 23.5 µM | RXF 393 7.89 µM | SF-268 39.4 µM | SK-OV-3 27.1 µM | SN12C 25.8 µM | SNB-19 21.8 µM | T47D 9.08 µM | U-251 39.8 µM | UACC-257 67.6 µM | UO-31 > 100 µM

COc1cc2nc(-c3cccs3)nc(N3C(c4cc(OC)c(OC)c(OC)c4)=NNC(=O)c4ccccc43)c2cc1OC
inactive: ACHN 44.1 µM | BT-549 18.9 µM | EKVX 30.8 µM | HOP-62 66.8 µM | K562 8.34 µM | MDA-MB-435 13.9 µM | MOLT-4 > 100 µM | NCI/ADR-RES 3.4 µM | OVCAR-4 13.9 µM | SF-268 12 µM | SF-539 21.8 µM | SK-OV-3 71.1 µM | SN12C 21.2 µM | SNB-19 16.4 µM | T47D 39 µM | U-251 15.8 µM | UACC-257 35.3 µM | UO-31 27.4 µM

CC(C)OP(=O)(OC(C)C)C(C(C)C)N(C)/C(N)=N\C1=NC(C(F)(F)F)(C(F)(F)F)N=C(C(C(F)(F)F)C(F)(F)F)O1 (stereo unspecified)
inactive: ACHN 2.59 µM | BT-549 2.79 µM | EKVX 3.66 µM | HOP-62 3.96 µM | K562 1.76 µM | MDA-MB-435 1.8 µM | MDA-N 2.14 µM | MOLT-4 1.49 µM | RXF 393 1.6 µM | SF-268 2.62 µM | SF-539 3.75 µM | SK-OV-3 5.4 µM | SN12C 3.15 µM | SNB-19 11.9 µM | T47D 3.01 µM | U-251 3.08 µM | UACC-257 3.05 µM | UO-31 4.47 µM

CCOC(=O)C1C(c2ccc(OC)cc2)c2c(nn(-c3ccccc3)c2O)CC1(O)OCC (stereo unspecified)
inactive: ACHN 25.4 µM | BT-549 > 100 µM | EKVX 98.9 µM | HOP-62 > 100 µM | MDA-MB-435 4.02 µM | MDA-N 8.63 µM | MOLT-4 2.45 µM | NCI/ADR-RES > 100 µM | OVCAR-4 > 100 µM | SF-268 > 100 µM | SF-539 > 100 µM | SN12C > 100 µM | SNB-19 10 µM | T47D 12.8 µM | U-251 > 100 µM | UACC-257 44.6 µM | UO-31 5.46 µM

CC1OC2OC3C(OCC(O)C3O)OC(=O)[C@]34CCC(C)(C)CC3C3=CCC5[C@@]6(C)C[C@H](O)[C@H](OC7OC(CO)C(O)C(O)C7OC7OCC(OC(=O)CC(C)(O)CC(=O)OC1C(OC1OC(CO)C(O)C(O)C1O)C2O)C(O)C7O)[C@@](C)(CO)C6CC[C@@]5(C)[C@]3(C)CC4 (stereo partly specified)
inactive: ACHN 8.3 µM | BT-549 9.27 µM | HOP-62 1.44 µM | MDA-MB-435 2.45 µM | MDA-N 2.44 µM | MOLT-4 10.3 µM | NCI/ADR-RES 8.32 µM | OVCAR-4 6.25 µM | SF-268 10.8 µM | SF-539 13.5 µM | SK-OV-3 12.4 µM | SN12C 12.2 µM | SNB-19 11.4 µM | T47D 9.46 µM | U-251 8.71 µM | UACC-257 3.48 µM | UO-31 4.47 µM

CC(C)(CCC(C)(C)N1OC1c1ccccc1)N1OC1c1ccccc1 (stereo unspecified)
inactive: ACHN 19.8 µM | BT-549 38.3 µM | K562 13.4 µM | MDA-MB-435 32.8 µM | MDA-N 39.9 µM | NCI/ADR-RES 58.6 µM | OVCAR-4 86.3 µM | SF-268 95.1 µM | SF-539 22.4 µM | SK-OV-3 62.8 µM | SN12C > 100 µM | SNB-19 47.5 µM | T47D 41.1 µM | U-251 72.9 µM | UACC-257 25.1 µM | UO-31 20 µM

CCCCc1ccc(-n2sc3ncccc3c2=O)cc1
inactive: ACHN 11.4 µM | BT-549 19.1 µM | EKVX 11.1 µM | HOP-62 11 µM | MDA-MB-435 16.3 µM | MDA-N 13.9 µM | MOLT-4 4.74 µM | NCI/ADR-RES 14.4 µM | OVCAR-4 13.6 µM | SF-268 8.75 µM | SF-539 21 µM | SK-OV-3 26.9 µM | SN12C 16.4 µM | SNB-19 21.9 µM | T47D 13 µM | U-251 15.1 µM | UACC-257 16.3 µM | UO-31 11.3 µM

CCN(CC)CCSc1nc(-c2c[nH]c3nc(C)ccc3c2=O)n[nH]1
inactive: ACHN > 100 µM | BT-549 > 100 µM | EKVX > 100 µM | HOP-62 > 100 µM | K562 > 100 µM | MDA-MB-435 > 100 µM | MDA-N > 100 µM | MOLT-4 > 100 µM | NCI/ADR-RES > 100 µM | OVCAR-4 > 100 µM | RXF 393 > 100 µM | SF-268 > 100 µM | SN12C > 100 µM | SNB-19 > 100 µM | T47D > 100 µM | U-251 > 100 µM | UACC-257 > 100 µM | UO-31 > 100 µM

Cc1ccc(S(=O)(=O)Nn2c(O)c(C#N)c(-c3ccc([N+](=O)[O-])cc3)c(C#N)c2=O)cc1
inactive: ACHN > 100 µM | BT-549 > 100 µM | EKVX > 100 µM | HOP-62 > 100 µM | K562 > 100 µM | MDA-MB-435 > 100 µM | MDA-N > 100 µM | MOLT-4 > 100 µM | NCI/ADR-RES > 100 µM | OVCAR-4 > 100 µM | RXF 393 > 100 µM | SF-268 > 100 µM | SF-539 > 100 µM | SK-OV-3 > 100 µM | SN12C > 100 µM | SNB-19 > 100 µM | U-251 > 100 µM | UACC-257 > 100 µM

O=C(CNc1ccccc1[N+](=O)[O-])Nn1cnc2ccc(S(=O)(=O)Nc3ccccc3[N+](=O)[O-])cc2c1=O
inactive: ACHN > 100 µM | BT-549 > 100 µM | EKVX > 100 µM | HOP-62 > 100 µM | K562 > 100 µM | MDA-MB-435 > 100 µM | MDA-N > 100 µM | MOLT-4 > 100 µM | NCI/ADR-RES > 100 µM | OVCAR-4 > 100 µM | SF-268 > 100 µM | SF-539 > 100 µM | SK-OV-3 > 100 µM | SN12C > 100 µM | SNB-19 > 100 µM | U-251 > 100 µM | UACC-257 > 100 µM | UO-31 73.8 µM

C=C[C@H]1CN2CCc3c([nH]c4cc(O)ccc34)[C@@H]2C[C@@H]1C[C@H]1c2[nH]c3ccccc3c2CCN1C
inactive: ACHN 5.28 µM | BT-549 13.8 µM | EKVX 7.62 µM | HOP-62 4.45 µM | K562 2.78 µM | MDA-MB-435 2.01 µM | MDA-N 1.78 µM | MOLT-4 3.57 µM | NCI/ADR-RES 9.06 µM | OVCAR-4 7.03 µM | SF-268 6.04 µM | SF-539 1.82 µM | SK-OV-3 13.8 µM | SN12C 4.79 µM | SNB-19 6.67 µM | T47D 15.6 µM | U-251 1.77 µM | UACC-257 1.95 µM | UO-31 2.09 µM
